Results: publication PMC7377239, “Cardiovascular Effects of Polychlorinated Biphenyls and Their Major Metabolites” (Environmental Health Perspectives, 2020)
Like-named read-outs stand apart in the source and are kept apart here.

Experiments:
[1] = tested on: iCell cardiomyocytes (human iPSC-derived cardiomyocytes); assay: High-content imaging of cytotoxicity and mitochondrial integrity in iPSC-CMs; format: cell-based; details: Homo sapiens, Cardiomyocyte; for viability at 0.01 µM / activity at 0.01 µM / viability at 0.1 µM / activity at 0.1 µM / viability at 1 µM / activity at 1 µM / viability at 10 µM / activity at 10 µM / viability at 100 µM / activity at 100 µM: 0.00 µM = 100.00; for viability at 0.1 µM / activity at 0.1 µM: 0.10 µM
How it was run: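 Human iPSC-derived cardiomyocytes were seeded on gelatin-coated 384-well plates at 5,000 cells per well and maintained for 12 d. Test chemicals were added as 10μL of 5× solutions to final concentrations of 0.01 to 100μM. Cells were stained with Hoechst 33342 and MitoTracker™ Orange, fixed in formaldehyde, and imaged by confocal high-content microscopy at 10× magnification.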

HUVECs = assay: High-content imaging cytotoxicity in HUVECs, 24 h; format: cell-based, human; details: Homo sapiens, HUVEC, 24 h, HUVECs; for viability at 0.01 µM / activity at 0.01 µM: concentration 0.01 µM; for viability at 0.01 µM / activity at 0.01 µM / viability at 0.1 µM / activity at 0.1 µM / viability at 1 µM / activity at 1 µM / viability at 10 µM / activity at 10 µM / viability at 100 µM / activity at 100 µM: 0.00 µM = 100.00; for viability at 0.1 µM / activity at 0.1 µM: concentration 0.10 µM; for viability at 1 µM / activity at 1 µM: concentration 1.00 µM; for viability at 10 µM / activity at 10 µM: concentration 10.00 µM; for viability at 100 µM / activity at 100 µM: concentration 100.00 µM; for minimal effective concentration: MAX 100.00
How it was run: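 HUVECs (passages 1–5) were plated at 750 cells/well without fibronectin, grown to a monolayer (3–5 d) and exposed to compounds for 24 h at 37°C, 5% CO2. Hoechst 33342, MitoTracker Orange and calcein AM staining was imaged at 10×; readouts were normalized to 0.5% DMSO vehicle and fit to a four-parameter logistic model.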

[2] = 1.5 h, 90min, read-out: cm.cam.90min
[3] = 1.5 h, 90min, read-out: cm.mii.90min
[4] = 1.5 h, 90min, read-out: cm.mito.90min
[5] = 1.5 h, 90min, read-out: cm.tc.90min
[6] = 24 h, 24hrs, read-out: cm.cam.24hrs
[7] = 24 h, 24hrs, read-out: cm.mii.24hrs
[8] = 24 h, 24hrs, read-out: cm.mito.24hrs
[9] = 24 h, 24hrs, read-out: cm.tc.24hrs
[10] = 24 hr, read-out: huvec.cyto.24hr
[11] = 24 hr, read-out: huvec.mito.24hr
[12] = 24 hr, read-out: huvec.mitoint.24hr
[13] = 24 hr, read-out: huvec.nma.24hr
[14] = 24 hrs, read-out: huvec.tc.24hrs

SMILES: Clc1cc(Cl)c(-c2cc(Cl)c(Cl)cc2Cl)cc1Cl [PCB153]
- viability at 0.01 µM [1, 2]: 98.3%
- activity at 0.01 µM [1, 3]: 112%
- activity at 0.01 µM [1, 4]: 98.2%
- viability at 0.01 µM [1, 5]: 98.1%
- viability at 0.1 µM [1, 2]: 96.8%
- activity at 0.1 µM [1, 3]: 109%
- activity at 0.1 µM [1, 4]: 96.6%
- viability at 0.1 µM [1, 5]: 96.6%
- viability at 1 µM [1, 2]: 102%
- activity at 1 µM [1, 3]: 112%
- activity at 1 µM [1, 4]: 102%
- viability at 1 µM [1, 5]: 102%
- viability at 10 µM [1, 2]: 99.4%
- activity at 10 µM [1, 3]: 102%
- activity at 10 µM [1, 4]: 99.5%
- viability at 10 µM [1, 5]: 99.5%
- viability at 100 µM [1, 2]: 1.35%
- activity at 100 µM [1, 3]: 91%
- activity at 100 µM [1, 4]: 1.22%
- viability at 100 µM [1, 5]: 1.5%
- minimal effective concentration ([1]; 1.5 h, 90min, read-out: cm.cam.90min POD): 20.6 µM
- minimal effective concentration ([1]; 1.5 h, 90min, read-out: cm.mii.90min POD): 100 µM
- minimal effective concentration ([1]; 1.5 h, 90min, read-out: cm.mito.90min POD): 19.8 µM
- minimal effective concentration ([1]; 1.5 h, 90min, read-out: cm.tc.90min POD): 23.2 µM
- viability at 0.01 µM [1, 6]: 94.6%
- activity at 0.01 µM [1, 7]: 88.6%
- activity at 0.01 µM [1, 8]: 94.7%
- viability at 0.01 µM [1, 9]: 95.8%
- viability at 0.1 µM [1, 6]: 98.2%
- activity at 0.1 µM [1, 7]: 109%
- activity at 0.1 µM [1, 8]: 99.3%
- viability at 0.1 µM [1, 9]: 98.3%
- viability at 1 µM [1, 6]: 99.7%
- activity at 1 µM [1, 7]: 80.6%
- activity at 1 µM [1, 8]: 100%
- viability at 1 µM [1, 9]: 99.9%
- viability at 10 µM [1, 6]: 96.8%
- activity at 10 µM [1, 7]: 99.6%
- activity at 10 µM [1, 8]: 95.2%
- viability at 10 µM [1, 9]: 96.5%
- viability at 100 µM [1, 6]: 1.91%
- activity at 100 µM [1, 7]: 23.6%
- activity at 100 µM [1, 8]: 0.34%
- viability at 100 µM [1, 9]: 1.92%
- minimal effective concentration ([1]; 24 h, read-out: cm.cam.24hrs POD): 11.6 µM
- minimal effective concentration ([1]; 24 h, read-out: cm.mii.24hrs POD): 39.9 µM
- minimal effective concentration ([1]; 24 h, read-out: cm.mito.24hrs POD): 10.5 µM
- minimal effective concentration ([1]; 24 h, read-out: cm.tc.24hrs POD): 11.1 µM
- viability at 0.01 µM (HUVECs; [10]): 89.7%
- activity at 0.01 µM (HUVECs; [11]): 88.6%
- activity at 0.01 µM (HUVECs; [12]): 89.5%
- activity at 0.01 µM (HUVECs; [13]): 98.4%
- viability at 0.1 µM (HUVECs; [10]): 85%
- activity at 0.1 µM (HUVECs; [11]): 83.8%
- activity at 0.1 µM (HUVECs; [12]): 93%
- activity at 0.1 µM (HUVECs; [13]): 97%
- viability at 1 µM (HUVECs; [10]): 94.2%
- activity at 1 µM (HUVECs; [11]): 93.9%
- activity at 1 µM (HUVECs; [12]): 92.2%
- activity at 1 µM (HUVECs; [13]): 97.3%
- viability at 10 µM (HUVECs; [10]): 66.9%
- activity at 10 µM (HUVECs; [11]): 53.7%
- activity at 10 µM (HUVECs; [12]): 45.8%
- activity at 10 µM (HUVECs; [13]): 66.9%
- viability at 100 µM (HUVECs; [10]): 66.2%
- activity at 100 µM (HUVECs; [11]): 34.5%
- activity at 100 µM (HUVECs; [12]): 13.2%
- activity at 100 µM (HUVECs; [13]): 65.8%
- minimal effective concentration (HUVECs; 24 hr, read-out: huvec.cyto.24hr POD): 0.0171 µM
- minimal effective concentration (HUVECs; 24 hr, read-out: huvec.mito.24hr POD): 0.75 µM
- minimal effective concentration (HUVECs; 24 hr, read-out: huvec.mitoint.24hr POD): 0.83 µM
- minimal effective concentration (HUVECs; 24 hr, read-out: huvec.nma.24hr POD): 1.01 µM
- viability at 0.01 µM (HUVECs; [14]): 89.7%
- viability at 0.1 µM (HUVECs; [14]): 85%
- viability at 1 µM (HUVECs; [14]): 94.2%
- viability at 10 µM (HUVECs; [14]): 67%
- viability at 100 µM (HUVECs; [14]): 66.2%
- minimal effective concentration (HUVECs; 24 hrs, read-out: huvec.tc.24hrs POD): 0.0171 µM
